Source: patent US11932589B2, “Hydrofluoroolefins and methods of using same” (3M INNOVATIVE PROPERTIES COMPANY, priority 2019, dated 2024)

Assays:
Type in all cases: physicochemical
[1] = Largest Soluble Hydrocarbon (LSH) test; conditions: hydrofluoroolefin:hydrocarbon about 1:1 to 1:2 by weight, longest hydrocarbon compatible without haze
Procedure: Largest Soluble Hydrocarbon (LSH): The LSH of each hydrofluoroolefin compound was determined by mixing the compound with hydrocarbons of varying molecular weight (CnH2n+2, where n=9 to 24) in a hydrofluoroolefin:hydrocarbon ratio of about 1:1 to 1:2 by weight at room temperature (25° C.) and at 50° C. […] A larger value of n is interpreted herein to indicate a greater ability of the hydrofluoroolefin to clean hydrocarbons.

[2] = Flash point, small scale closed-cup apparatus (ASTM D-3278-96 e-1); conditions: closed-cup ASTM method; no flash point = non-flammable
Excerpt: The acetate was thermally decomposed and the title product separated by fractional distillation. The structure was verified by GC-MS and NMR.

[3] = Open pan exposure to direct flame

| Compound | LSH (n in CnH2n+2) ([1]; 25° C.) | LSH (n in CnH2n+2) ([1]; 50° C.) | Flash point [2] | Burning in an open pan upon exposure to direct flame [3] |
| --- | --- | --- | --- | --- |
| C=CC(F)(C(F)C(F)(F)F)C(F)(F)F (stereo not drawn) [Example 1, 3,4,5,5,5-pentafluoro-3-(trifluoromethyl)pent-1-ene] | 13 | 14 | no flash point | – |
| C=C(C)C1C(F)C(F)(F)C(F)(F)C1(F)F (stereo not drawn) [Example 4, 1,1,2,2,3,3,4-heptafluoro-5-isopropenyl-cyclopentane] | 17 | 21 | – | not observed to burn |
